Experimental data as given in publication PMC9765450, “Structures of Fission Yeast Inositol Pyrophosphate Kinase Asp1 in Ligand-Free, Substrate-Bound, and Product-Bound States” (mBio, 2022).

Target: T1, Asp1-(1-385) kinase domain (Schizosaccharomyces pombe, UniProt O74429, E248Q)
T1 construct: N-terminal kinase domain, residues 1-385
Assay: PAGE kinase assay, toluidine blue staining
Type: biochemical
Details: 2 mM GTP, 0.5 mM 5-IP7, 5 mM MgCl2, pH 6.2, 37 °C; phosphate donor

Nc1nc2c(ncn2[C@@H]2O[C@H](COP(=O)(O)OP(=O)(O)OP(=O)(O)O)[C@@H](O)[C@H]2O)c(=O)[nH]1 [GTP]
PAGE kinase assay, toluidine blue staining: elicited a gain of function whereby GTP was enabled as a phosphate donor
